A value given as a limit tells only on which side of the number the result lay.

This assay has as its target Vascular endothelial growth factor receptor 2 (Homo sapiens, UniProt P35968). Briefly: Homogeneous Time-resolved Fluorescence (HTRF) Assay. Conditions: pH 7.4; 22 °C. From the text: The assay was using baculovirus-expressed recombinant protein kinase and biotinylated poly-Glu-Ala-Tyr substrate.

Vascular endothelial growth factor receptor 2, sequence (P35968 whole entry): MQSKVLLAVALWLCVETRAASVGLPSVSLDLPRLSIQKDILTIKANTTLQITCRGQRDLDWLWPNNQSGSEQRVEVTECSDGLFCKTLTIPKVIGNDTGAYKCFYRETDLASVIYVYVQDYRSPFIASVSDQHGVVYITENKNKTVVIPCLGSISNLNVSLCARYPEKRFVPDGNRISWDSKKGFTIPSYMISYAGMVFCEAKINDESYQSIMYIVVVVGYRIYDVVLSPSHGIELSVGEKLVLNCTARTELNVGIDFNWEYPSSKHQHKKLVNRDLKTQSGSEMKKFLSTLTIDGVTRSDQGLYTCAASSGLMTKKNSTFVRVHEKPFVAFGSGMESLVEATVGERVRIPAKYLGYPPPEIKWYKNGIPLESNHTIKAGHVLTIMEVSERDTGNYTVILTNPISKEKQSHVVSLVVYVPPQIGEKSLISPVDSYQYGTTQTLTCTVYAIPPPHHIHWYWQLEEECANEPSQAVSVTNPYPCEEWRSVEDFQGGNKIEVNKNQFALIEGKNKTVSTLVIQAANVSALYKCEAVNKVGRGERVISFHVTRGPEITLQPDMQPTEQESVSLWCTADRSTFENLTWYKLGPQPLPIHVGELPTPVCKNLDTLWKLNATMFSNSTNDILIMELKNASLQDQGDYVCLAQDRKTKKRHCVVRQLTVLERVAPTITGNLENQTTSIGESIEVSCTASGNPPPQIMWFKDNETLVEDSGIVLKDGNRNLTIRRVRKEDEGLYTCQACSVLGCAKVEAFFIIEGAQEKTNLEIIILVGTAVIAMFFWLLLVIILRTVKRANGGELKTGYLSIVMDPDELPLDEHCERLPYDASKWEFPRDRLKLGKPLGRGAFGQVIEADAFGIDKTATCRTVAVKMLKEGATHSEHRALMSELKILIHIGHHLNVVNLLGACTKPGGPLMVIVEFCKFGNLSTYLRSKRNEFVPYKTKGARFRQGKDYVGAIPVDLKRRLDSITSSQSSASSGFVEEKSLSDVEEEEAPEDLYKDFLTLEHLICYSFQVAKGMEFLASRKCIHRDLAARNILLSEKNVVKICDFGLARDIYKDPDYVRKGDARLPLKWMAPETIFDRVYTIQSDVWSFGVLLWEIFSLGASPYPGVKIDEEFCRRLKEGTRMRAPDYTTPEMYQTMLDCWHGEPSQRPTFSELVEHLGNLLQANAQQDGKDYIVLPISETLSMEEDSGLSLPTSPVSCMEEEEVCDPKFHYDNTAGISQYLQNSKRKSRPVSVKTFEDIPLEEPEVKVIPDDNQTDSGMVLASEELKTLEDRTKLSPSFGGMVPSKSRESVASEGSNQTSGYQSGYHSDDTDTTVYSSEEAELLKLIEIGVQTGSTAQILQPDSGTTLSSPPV

For orientation: IC50 means the midpoint of a concentration-inhibition curve. A lower IC50 goes with greater potency in that assay. Take `COc1cc(-c2nn(C3CCC(N4CCN(C)CC4)CC3)c3ncnc(N)c23)ccc1NC(=O)c1ccccc1` [N-(4-{(S)-4-Amino-1-[4-(4-methyl-piperazin-1-yl)-cyclohexyl]-1H-pyrazolo[3,4-d]pyrimidin-3-yl}-2-methoxy-phenyl)-benzamide]: the IC50 is > 50000 nM. The figure for `COc1cc(-c2nn(C3CCC(N4CCN(C)CC4)CC3)c3ncnc(N)c23)ccc1NC(=O)Nc1ccccc1` [1-(4-{(S)-4-Amino-1-[4-(4-methyl-piperazin-1-yl)-cyclohexyl]-1H-pyrazolo[3,4-d]pyrimidin-3-yl}-2-methoxy-phenyl)-3-phenyl-urea] is 263 nM.

The values are drawn from BindingDB's records for doi:10.1016/j.bmcl.2004.06.041 (Abbott Laboratories, 2004).
